Read-outs that look alike come from different tables or passages of the source.
Test system: colonic secretory chloride channel
Test: Single chloride channels from rat colonic enterocyte plasma membrane vesicles incorporated into planar lipid bilayers; calixarene added to the cis (outer membrane) side
Format: biochemical
Conditions: for duration of the block periods: increases with size n of p-sulfonatocalix[n]arene; for MAXIMUM BLOCK PERIODS: single channel in PE:PS 7:3 planar bilayer; for MAXIMUM BLOCK PERIODS (block of channel): UPTO 100 μM
Protocol: In accordance with the methodology of Reinhardt et al., "Properties of an Anion-selective Channel from Rat Colonic Enterocyte Plasma Membranes Reconstituted into Planar Phospholipid Bilayers", J. Membrane Biol. 95: 47-54, 1987, calixarene derivatives were tested on single chloride channels incorporated into planar lipid bilayers. Plasma membrane vesicles derived from rat colonic enterocytes were used as a source of chloride channels. Properties of the colonic secretory chloride channel include one dominant open-state conductance, an outwardly rectified current-voltage relation with a zero voltage slope conductance of 50 pS in 150 mM Cl, a Cl to Na selectivity of at least 10:1, and a halide selectivity of I>Br>CI>F. Patch-clamp studies of several chloride secreting epithelia have identified an apical membrane chloride channel with identical biophysical properties. This channel is activated by CAMP and Ca mediated agonists and thus is considered a secretory chloride channel.
Chloride channels were incorporated into planar lipid bilayers of phosphatidylethanolamine and phosphatidylserine (PE:PS, 7:3) and data recorded according to known test methodology. See, Bridges et al., "Stilbene Disulfonate Blockade of Colonic Secretory Cl^- Channels in Planar Lipid Bilayers", Am. J. Physiol. 256 (Cell Physiol. 25): C902-C912, 1989. See also, Reinhardt et al. and Singh et al., supra.
Once a chloride channel was incorporated into the bilayer, baseline (control) channel activity was recorded for 5-15 minutes. The calixarenes were then added to the cis or outer membrane side of the channel and the channel activity recorded for an additional 5-15 minutes at each concentration. Because each channel serves as its own control, calixarene effects could be uniquely identified. In some experiments the cis compartment was exchanged with calixarene-free solution to test the reversibility of the calixarene-induced effects. Single channel records were stored on video tape and quantitatively evaluated by computer assisted analysis.

[1] = single channel in planar bilayer, Table 1, read-out: Ki (concentration causing a half-maximal inhibition)

| SMILES | duration of the block periods | MAXIMUM BLOCK PERIODS (Table 1) | Ki [1] | Ki (read-out: concentration causing a half maximal decrease (K1) in Po (percent time channel in open state)) | long-lived block periods, duration (at a concentration as low as 3 nM) | K1 (suggested from brief open periods between long blocks) (estimate) | MAXIMUM BLOCK PERIODS (block of channel) | blocking the chloride channel (even at a concentration as high as 100 μM) |
| --- | --- | --- | --- | --- | --- | --- | --- | --- |
| O=S(=O)(O)c1cc2c(O)c(c1)Cc1cc(S(=O)(=O)O)cc(c1O)Cc1cc(S(=O)(=O)O)cc(c1O)Cc1cc(S(=O)(=O)O)cc(c1O)Cc1cc(S(=O)(=O)O)cc(c1O)Cc1cc(S(=O)(=O)O)cc(c1O)Cc1cc(S(=O)(=O)O)cc(c1O)Cc1cc(S(=O)(=O)O)cc(c1O)C2 [5,11,17,23,29,35,41,47-octasulfonatocalix[8]arene] | > 100 s | > 100 s | < 50 nM |  |  |  |  |  |
| O=S(=O)(O)c1cc2c(O)c(c1)Cc1cc(S(=O)(=O)O)cc(c1O)Cc1cc(S(=O)(=O)O)cc(c1O)Cc1cc(S(=O)(=O)O)cc(c1O)Cc1cc(S(=O)(=O)O)cc(c1O)Cc1cc(S(=O)(=O)O)cc(c1O)C2 [5,11,17,23,29,35-hexasulfonatocalix[6]arene] | 30 to 40 s | 30 to 40 s | 400 to 500 nM |  |  |  |  |  |
| O=S(=O)(O)c1cc2c(O)c(c1)Cc1cc(S(=O)(=O)O)cc(c1O)Cc1cc(S(=O)(=O)O)cc(c1O)Cc1cc(S(=O)(=O)O)cc(c1O)C2 [5,11,17,23-TETRASULFONATO-CALIX[4]ARENE, 5,11,17,23-tetrasulfonato-calix[4]arene] | 3 to 4 s | 3 to 4 s | 800 to 900 nM | < 1000 nM |  |  |  |  |
| COc1c2cc(S(=O)(=O)O)cc1Cc1cc(S(=O)(=O)O)cc(c1OC)Cc1cc(S(=O)(=O)O)cc(c1OC)Cc1cc(S(=O)(=O)O)cc(c1OC)C2 [5,11,17,23-tetrasulfonato-25,26,27,28-tetramethoxy-calix[4]arene] |  | > 100 s | < 3 nM |  | several hundred | subnanomolar |  |  |
| COc1c2cccc1Cc1cccc(c1OC)Cc1cccc(c1OC)Cc1cccc(c1OC)C2 [25,26,27,28-TETRAMETHOXY-CALIX[4]ARENE, reference compound] |  |  |  |  |  |  | NO BLOCK |  |
| Oc1c2cccc1Cc1cccc(c1O)Cc1cccc(c1O)Cc1cccc(c1O)C2 [CALIX[4]ARENE, Calix[4]arene, reference compound] |  |  |  |  |  |  | NO BLOCK | completely ineffective |

— US5489612A, “Calixarene chloride-channel blockers” (The University of Alabama at Birmingham Research Foundation, priority 1994, dated 1996)
